Experimental findings from PubChem BioAssay AID1259246 (Broad Institute, 2017) are described below.

Broadly, the IC50 is the concentration at which inhibition is half-maximal.

Several values for one entry are separate records, joined by “and”; a condition that tells them apart may be missing. Equal entries are not always repeated. Records with an inconclusive call do not appear. Activity calls are given as the source filed them.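 Rule for the calls: active = valid dose-response fit whose half-maximal growth-inhibiting concentration is at or below a set limit above the top tested dose; inconclusive = flat fit with effect between 30 and 70%, or poor fit; inactive = half-maximal concentration above a set limit.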

Tested on in the first test: not listed separately
The test can be described thus: antibacterial activity against Clostridioides difficile – 10-point retest, dose response (AID 1259246). As to conditions: Clostridioides difficile clinical isolate growth, OD600, 24 h; at 120 µM (top of the series).
On to `O=C(C[C@H]1C[C@@H]2c3cc(NC(=O)NC4CCCC4)ccc3O[C@@H]2[C@@H](CO)O1)NCc1ccc2c(c1)OCO2`, for which the activity change, negative = inhibition was -10.4% (inactive).

As to `CNC[C@H]1Oc2cc(C#CCC(C)C)ccc2S(=O)(=O)N([C@H](C)CO)C[C@@H]1C`, the activity change, negative = inhibition was 19.7% (inactive).

For `O=C(C[C@H]1C[C@H]2c3cc(NC(=O)Nc4ccccc4)ccc3O[C@H]2[C@H](CO)O1)NC1CCCC1`, the activity change, negative = inhibition was -1.4% (inactive).

The test is the same for the next values; noted with them: Clostridioides difficile clinical isolate growth, OD600, 24 h; at 135 µM (top of the series).
With `C[C@@H]1CN([C@H](C)CO)C(=O)Cc2cc(NS(=O)(=O)c3ccccc3)ccc2O[C@@H]1CN(C)Cc1ccc(-c2ccccc2)cc1`, the activity change, negative = inhibition is 31.9% (inactive).

The next test concerns Clostridioides difficile clinical isolate growth, OD600, 24 h. The test is described as above.
Conditions: not given
Take `C[C@@H]1CN([C@H](C)CO)C(=O)Cc2cc(NC(=O)CCCN(C)C)ccc2O[C@H]1CN(C)Cc1ccc(-c2ccccc2)cc1`: the IC50 was 74.7 µM and 48 µM.

For `O=C(C[C@H]1CC[C@@H]2[C@H](COC[C@@H](O)CN2S(=O)(=O)c2ccccc2)O1)NCC1CCCCC1`, the IC50 was 52.4 µM.

For the compound `CO[C@@H]1CN(C)C(=O)c2ccc(NC(=O)Nc3cc(Cl)cc(Cl)c3)cc2OC[C@H](C)NC[C@H]1C`, the IC50 was 153 µM and 36.2 µM.

For the compound `CO[C@@H](CN(C)S(=O)(=O)c1cn(C)cn1)[C@@H](C)CN(C(=O)Nc1ccc(C(F)(F)F)cc1)[C@H](C)CO`, the IC50 is 24.7 µM.

With `C[C@@H]1CN([C@@H](C)CO)C(=O)c2cccc(NC(=O)Nc3ccc(F)cc3)c2O[C@@H]1CN(C)Cc1ccc(-c2ccccc2)cc1`, the IC50 is 4.56 µM and 1.71 µM and 1.93 µM.

For `C[C@@H]1CCCCO[C@@H](CN(C)CC2CCCCC2)[C@@H](C)CN([C@@H](C)CO)C(=O)c2cc(NC(=O)Nc3ccc(C(F)(F)F)cc3)ccc2O1`, the IC50 was 50.2 µM and 17.8 µM.

As for `O=C(NCC[C@H]1CC[C@H](NS(=O)(=O)c2ccc(F)cc2)[C@@H](CO)O1)Nc1ccc(Cl)cc1`, the IC50 is 26.6 µM.

With `C[C@@H]1CN([C@@H](C)CO)C(=O)c2cc(NC(=O)Nc3cccc4ccccc34)ccc2O[C@@H](C)CCCCO[C@H]1CN(C)CC1CCCCC1`, the IC50 is 77.1 µM.

For `C[C@@H]1CN([C@H](C)CO)S(=O)(=O)c2ccc(/C=C/c3ccccc3)cc2O[C@@H]1CN(C)Cc1ccc(C(=O)O)cc1`, the IC50 was 153 µM.

As to `CCS(=O)(=O)N1[C@H](CO)[C@H](c2ccc(C#CCC3CCCC3)cc2)[C@@H]1C#N`, the IC50 is 80.2 µM.

As for `C[C@@H]1CN([C@@H](C)CO)C(=O)c2cccc(NC(=O)Nc3ccc(C(F)(F)F)cc3)c2O[C@@H]1CN(C)Cc1ccc(-c2ccccc2)cc1`, the IC50 was 0.3 µM and 1.52 µM and 0.654 µM.

On to `C[C@@H]1CN([C@@H](C)CO)C(=O)c2cccc(NC(=O)Nc3ccc(C(F)(F)F)cc3)c2O[C@@H]1CN(C)Cc1ccccc1`, for which the IC50 is 2.69 µM.

Take `CO[C@H]1CN(C)C(=O)c2cc(NC(=O)Nc3ccc(Cl)c(Cl)c3)ccc2OC[C@H](C)NC[C@H]1C`: the IC50 was 15.7 µM and 26.5 µM.

As for `CO[C@H]1CN(C)C(=O)c2cc(NC(=O)Nc3ccc(Cl)c(Cl)c3)ccc2OC[C@@H](C)NC[C@H]1C`, the IC50 is 14.9 µM and 13.1 µM.

In the case of `C[C@@H]1CN([C@@H](C)CO)C(=O)c2cccc(NC(=O)Nc3ccc(C(F)(F)F)cc3)c2O[C@@H]1CN(C)Cc1ccc(Oc2ccccc2)cc1`, the IC50 was 0.443 µM and 0.73 µM.

For the compound `COc1ccc(CN(C)C[C@@H]2OCCCC[C@H](C)Oc3ccc(NC(=O)Nc4cccc5ccccc45)cc3C(=O)N([C@H](C)CO)C[C@H]2C)cc1`, the IC50 was 87.9 µM.

Take `CO[C@H]1CN(C)C(=O)c2cc(NC(=O)Nc3ccc(Cl)c(Cl)c3)ccc2OC[C@H](C)NC[C@@H]1C`: the IC50 was 15.1 µM and 73 µM.

`CO[C@@H]1CN(C)C(=O)c2cc(NC(=O)Nc3cc(Cl)cc(Cl)c3)ccc2OC[C@H](C)NC[C@H]1C`: the IC50 was 15.8 µM and 36.4 µM.

Take `C[C@@H]1CN([C@@H](C)CO)C(=O)c2cccc(NC(=O)Nc3ccc(C(F)(F)F)cc3)c2O[C@@H]1CN(C)C(=O)Nc1ccc(F)cc1`: the IC50 was 13.9 µM and > 240 µM (inactive).

As to `COc1ccc(S(=O)(=O)Nc2cccc3c2O[C@H](CN(C)Cc2ccc(Oc4ccccc4)cc2)[C@H](C)CN([C@@H](C)CO)C3=O)cc1`, the IC50 is 9.4 µM.

`N#C[C@H]1[C@@H](c2ccc(C#Cc3ccccc3F)cc2)[C@@H](CO)N1C(=O)C1CCCCC1`: the IC50 was 157 µM.
